Assays:
[1] = test system: NCI-H1048 cells; assay: Uptake of fluorescein-labeled 24-mer phosphorothioate oligonucleotide, flow cytometry (Table 2); type: cell-based, human; conditions: for Total uptake: mean cell fluorescence / Uptake increase over oligo alone: oligonucleotide 0.5 micro-M
Description: Human small cell lung carcinoma cells (NCI-H1048) were grown in RPMI-1640 medium with 10% heat-inactivated fetal calf serum. The cells were exposed for 7 hours in a serum-free medium with a fluorescein-labeled 24-mer phosphorothioate oligonucleotide (0.5 micro-M final concentration), alone or in a complex with lipids obtained as described in Examples 2 and 3. Then the equal volume of serum-supplemented medium was added, and the cells were incubated for another 18 hours. After incubation, cellular accumulation of the oligonucleotide was assayed by flow cytometry using fluorescein label fluorescence.

[2] = test system: KB31 cells; assay: Delivery of bacterial plasmid pUC-CMVLUC into KB31 cells, luciferase reporter expression (Table 1); type: cell-based, human; conditions: KB cells, pUC-CMVLUC 1 microgram, 7 h; maximum over a range of plasmid/lipid ratios
Description: (§1) These materials were used as supplied from the manufacturer. DOTAP-DOPE 1:1 was prepared from the mixture (1:1 by weight) of 1,2 dioleoyloxy-3-trimethylammoniopropane (DOTAP, Avanti PolarLipids, USA) and DOPE by dissolving in distilled water at the concentration 2 mg/ml. DDAB-DOPE 1:2.5 (also known as LipofectACE®, Gibco BRL, USA) was prepared from the mixture of dioctadecyl-dimethylammonium bromide (DDAB, Sigma, USA) and DOPE in the weight ratio 1:2.5 dissolved in distilled water at concentration of 3 mg/ml with brief sonication. All lipid solutions were sterilized by filtration though 0.2 micrometer cellulase acetate filter, unless supplied sterile by manufacturers.
Human epidermoid carcinoma (KB31) cells were grown at 37° C. and 5% CO2 in RPMI 1640 medium supplemented with 10% heat-inactivated fetal calf serum. The cells were plated into a 12-well cell culture plate at 1.5×10^5 cells/well in 1 ml of the growth medium. After a 24 hour acclimation period, 1 microgram of bacterial plasmid (pUC-CMVLUC) with luciferase reporter gene under control of the CMV promoter was added to the cell media, either alone, or in the complex with cationic lipids as indicated below, prepared at a variety of lipid-to-DNA ratios. The complexes were prepared by mixing the lipid, as supplied by the manufacturer, and 1 microgram of the plasmid in 40 microliters of HEPES-NS. […]

[3] = test system: living cells; assay: Delivery of functional plasmid DNA and phosphorothioate oligonucleotide into living cells (summary comparison); type: cell-based
From the text: We have tested Arg-PE for its ability to deliver functional plasmid DNA and phosphorothioate oligonucleotide (PS ON) into living cells. […] Helper lipids are required for the activity of previously known monocationic lipids.

[4] = test system: C26 cells; assay: Delivery of bacterial plasmid into mouse colon carcinoma C26 cells, luciferase expression (Table 3); type: cell-based
Description: as §1
Mouse colon carcinoma cells (C26) were grown, incubated with plasmid pCMVLUC in the presence of Arg-PE or commercially available cationic lipids, and assayed for luciferase expression as described in Example 5 above.

[5] = test system: KB31 cells; assay: Toxicity of lipids alone or in complex with plasmid for cultured cells, MTT assay; type: cell-based, human; conditions: for Toxicity in the studied range of concentrations efficient for gene delivery: cultured human cells, alone or in combination with DNA
Description: Lipids alone, or in the complex with pUC-CMVLUC plasmid at the indicated ratio were added to the cell medium at concentrations of 3.2-100 microgram of lipid per 1 ml of growth medium. After 24 hours exposure to the lipids, the lipid-containing media were removed, and the cells were further incubated in fresh growth medium for 65 hours. At the end of incubations, the cell viability was determined by MTT assay as described in T. Mossman 65 J. Immunol.

[6] = test system: NCI-H1048 cells; assay: Delivery of bacterial plasmid into human extrapulmonary small cell carcinoma NCI-H1048 cells, luciferase expression (Table 4); type: cell-based
Description: as §1
The cells were plated into a 12-well cell culture plate at 1.5×10^5 cells/well in 1 ml of the growth medium. After a 24 hour acclimation period, 1 microgram of bacterial plasmid (pUC-CMVLUC) with luciferase reporter gene under control of the CMV promoter was added to the cell media, either alone, or in the complex with cationic lipids as indicated below, prepared at a variety of lipid-to-DNA ratios. The complexes were prepared by mixing the lipid, as supplied by the manufacturer, and 1 microgram of the plasmid in 40 microliters of HEPES-NS. […]

[7] = test system: NCI-A549 cells; assay: Uptake of fluorescein-labeled 18-mer phosphorothioate oligonucleotide (F-ON), fluorescence microscopy; type: cell-based, human; conditions: oligonucleotide/lipid weight ratio 1:12, 24 hours, 37° C.
Description: Human lung adenocarcinoma cells (NCI-A549, American Type Culture Collection) were grown on Permanox® chamber slides in […] medium supplemented with 10% fetal calf serum (R-10) at 37° C. and 5% CO2. 4 micrograms of fluroscein-labeled 18-mer phosphorothioate oligonucleotide (F-ON) in 0.1 ml of HEPES-buffered saline (20 mM hydroxyethylpiperazine-ethane sulfonic acid (HEPES), 144 mM NaCl, pH 7.4) were mixed with Arg-PE formulated as described in Example 2, at the weight ratio of oligonucleotide to the lipid of 1:12. After 30 minutes of incubation, the mixture was made up to 2 mi with R-10 and added to the cells. After 24 hours incubation at 37° C., 5% CO2, the medium was aspirated, the cells washed 4 times with HEPES-buffered balanced salt solution, and immediately examined through a fluorescence microscope. […] Accumulation of the oligonucleotide in NCI-A549 cells, incubated with F-ON under the same conditions, but in the absence of Arg-PE, was undetectable.

[8] = pUC-CMVLUC, maximum over a range of plasmid/lipid ratios

Row | SMILES | Enhancement of oligonucleotide uptake compared with commercial cationic lipids ([1]; NCI-H1048 cells) | Total uptake: mean cell fluorescence ([1]; oligo/lipid ratio 1:3) | Uptake increase over oligo alone ([1]; oligo/lipid ratio 1:3) | Total uptake: mean cell fluorescence ([1]; oligo/lipid ratio 1:6) | Uptake increase over oligo alone ([1]; oligo/lipid ratio 1:6) | Maximum luciferase activity [2] | Efficiency of DNA delivery compared with DOGS [3] | Efficiency of cellular delivery of DNA and PS ON versus commercial materials [3] | DNA delivery activity without helper lipid ([3]; without the use of a "helper lipid") | Plasmid delivery compared with other cationic lipids [4] | Maximum luciferase activity [4, 8] | Toxicity compared with commercial lipids (MTT viability) ([5]; 3.2-100 microgram lipid per ml, 24 hours exposure, lipid as such or DNA-lipid complexes) | Toxicity in the studied range of concentrations efficient for gene delivery [5] | Plasmid delivery compared with Transfectam [6] | Maximum luciferase activity [6, 8] | Cells showing nuclear fluorescence and cytoplasmic deposits of fluorescent material [7] | Microscopic appearance (intracellular distribution of F-ON) [7]
1 | CCCCCCCC/C=C\CCCCCCCC(=O)OC[C@H](COP(=O)(O)OCCNC(=O)[C@@H](N)CCCNC(=N)N)OC(=O)CCCCCCC/C=C\CCCCCCCC [Arg-PE, N-Arginyl-dioleoylphosphatidylethanolamine] | enhanced the uptake of the oligonucleotide by the cells at least as effectively as the tested commercial cationic lipids | 2.97 relative units | 4.26 times | 4.08 relative units | 5.85 times | 8.25 × 10^6 RLU/mg protein | superior to that of a polycationic lipid, DOGS | higher efficiency of the cellular delivery of DNA and PS ON | highly active for the DNA delivery into the cells even without the use of a "helper lipid" | more effective for the plasmid delivery into C26 cells than other monocationic lipids and as effective as the polycationic lipid Transfectam® | 9.02 × 10^7 RLU/mg protein | displayed the least toxicity | no detectable toxicity | as effective for the plasmid delivery into NCI-H1048 cells as a polycationic Transfectam® | 3.21 × 10^5 RLU/mg protein | 100% | bright green nuclear fluorescence and substantial cytoplasmic deposits of granular fluorescent material
2 | CCCCCCCCCCCCCCCCCCN(CCCCCCCCCCCCCCCCCC)C(=O)CNC(=O)C(CCCNCCCN)NCCCN (stereo not drawn) [DOGS, reference compound] |  |  |  |  |  |  |  |  |  |  |  |  | no detectable toxicity |  |  |  | 

— patent US5980935A, “Cationic lipids and methods of use therefor” (priority 1996, dated 1999)
